Measurements taken from PMC10552397 (Cell Communication and Signaling : CCS, 2023).
pEC50: −log10 of the molar value. Values joined by “and” are separate entries in the source; they are usually repeats but may differ in a detail not shown here. Equal entries are not always repeated.

Key:
[1] = molecular target: GRASP55 (Homo sapiens, UniProt Q9H8Y8); assay: Thermal proteome profiling compound concentration range (TPP-CCR), GRASP55; assay type: binding; design: endogenous in cells; details: for GORASP2 dose response, average: average of n=1-3; for GORASP2 dose response, fit: value of fitted curve; for pEC50: 3 min at 50 °C; for normalized.Reporter.intensity: single replicates n1-n3
Procedure: Adherent cells were washed in the dish once with DPBS and harvested by Trypsin–EDTA (0.25%, Thermo Fisher Scientific, Waltham, MA, USA, #25,200,056) treatment. After addition of 35 mL DPBS, the cells were pelleted by centrifugation (300 rcf, 5 min, 4 °C), and washed twice by re-suspending and pelleting using 45 mL and 1 mL DPBS, respectively, to remove excess trypsin and for transfer into pre-weighed 2 mL Eppendorf tubes to determine the cell pellet wet weights as quality check after centrifugation (300 rcf, 5 min, 4 °C) and complete removal of the supernatant. Cells for TPP-TR were resuspended using 1 mL, and cells for TPP-CCR were resuspended using 0.4 mL ice-cold DPBS, respectively, supplemented with protease inhibitor cocktail (Roche, Basel, Switzerland, #5,892,791,001). […] Cell suspensions were shortly centrifuged (1 s or less) using a benchtop centrifuge to release trapped air and to achieve an even liquid level without pelleting the cells. The samples were then temperature treated by a 7 min pre-incubation at RT, 3 min temperature treatment in the PCR cycler (DNA Engine Tetrad 2, lid temperature 70 °C) at different temperatures (37 °C or 50 °C for TPP-CCR or the temperatures given in Table 2 for TPP-TR) and a 3 min post-incubation at RT in a metal heating block for uniform heat dissipation.
(§1) After temperature treatment, samples were supplemented with lysis buffer (final concentrations: 0.36 U/µL benzonase, 1.5 mM MgCl2, 1 mM Na3VO4, 10 mM NaF, 2.5 mM Na4P2O7, 0.8% w/v NP-40) for 1 h on ice. The lysates were cleared from cell debris as well as denatured and precipitated proteins by centrifugation at 20,000 rcf and 4 °C for 30 min. The total protein concentration of the resulting cell extracts containing the fraction of soluble, non-denatured proteins was determined (Pierce 660 nm Protein Assay, BSA as standard). Cell extracts were shock frozen in liquid nitrogen and stored at -80 °C. The three replicates for TPP-TR and TPP-CCR were prepared on consecutive days, respectively. The two (37 °C or 50 °C) x ten (concentrations) x three (replicates) = 60 TPP-CCR samples and two (treatment and control) x ten (temperatures) x three (replicates) = 60 TPP-TR samples were analyzed by LC–MS/MS. GRASP55 was additionally quantified from the TPP-TR samples by immunoblotting as described in the respective section.
For TPP-CCR, SP3 was performed as described with slight modifications to the original protocol using on average 5 µg total protein per sample and resulting in theoretically 5 µg peptides in 22 µL 50 mM triethylammonium bicarbonate per sample. For each of the two (treatment and control) x three (replicates) = six TPP-TR temperature treatment sample sets, the same volume for each of the ten temperature samples was used for SP3 processing, thus, maintaining the information about the temperature dependent non-denatured protein content. This volume was calculated such that the lowest two temperature samples (36.5 °C and 41.2 °C) contained 10 µg total protein on average. The samples were diluted using SDS containing buffer (20 µL final, final concentrations: 7.5% glycerol, 3% SDS, 37.5 mM Tris/HCl pH 7.0) and the proteins were reduced, alkylated, and precipitated on the solid phase as described using adjusted volumes (2 × due to processing 10 µg instead of 5 µg). Volumes for washing of the aggregated proteins on the solid phase and for tryptic digestion were kept unchanged, however, to maintain the maximal total protein to trypsin/Lys-C ratio at 50:1 in the two rounds of digestion (13 h and 4 h), respectively, 2 × 0.2 µg trypsin/Lys-C was used per sample, theoretically resulting in at most about 10 µg peptides in 22 µL 50 mM triethylammonium bicarbonate. […]

[2] = tested on: JUN; assay: TPP-TR/RTSA, JUN; assay type: binding, Homo sapiens; details: 100 nM vs DMSO, 6 h, HeLa wt
Procedure: TPP was performed essentially as described, but with major modifications to the TMT labeling sets and statistical data analysis for TPP-TR.
Adherent cells were washed in the dish once with DPBS and harvested by Trypsin–EDTA (0.25%, Thermo Fisher Scientific, Waltham, MA, USA, #25,200,056) treatment. […]
as §1, with “The lysates were cleared from cell debris as well as denatured and precipitated proteins by centrifugation at 20,000 rcf and 4 °C for 30 min.” left out, “Cell extracts were shock frozen in liquid nitrogen and stored at -80 °C. The three replicates for TPP-TR and TPP-CCR were prepared on consecutive days, respectively.” left out
For TPP-CCR, SP3 was performed as described with slight modifications to the original protocol using on average 5 µg total protein per sample and resulting in theoretically 5 µg peptides in 22 µL 50 mM triethylammonium bicarbonate per sample. […] This volume was calculated such that the lowest two temperature samples (36.5 °C and 41.2 °C) contained 10 µg total protein on average. […]

CCCCCC1=C/C(=C/c2[nH]c(-c3ccc[nH]3)cc2OC)N=C1C [Prodigiosin, prodigiosin]
GORASP2 dose response, average ([1]; 37°C, 0.0976562 nM prodigiosin): -0.42 | GORASP2 dose response, fit ([1]; 37°C, 0.0976562 nM prodigiosin): 0.0663 | GORASP2 dose response, average ([1]; 37°C, 0.390625 nM prodigiosin): 0.54 | GORASP2 dose response, fit ([1]; 37°C, 0.390625 nM prodigiosin): 0.10 | GORASP2 dose response, average ([1]; 37°C, 1.5625 nM prodigiosin): 0.10 | GORASP2 dose response, fit ([1]; 37°C, 1.5625 nM prodigiosin): 0.16 | GORASP2 dose response, average ([1]; 37°C, 6.25 nM prodigiosin): 0.08 | GORASP2 dose response, fit ([1]; 37°C, 6.25 nM prodigiosin): 0.23 | GORASP2 dose response, average ([1]; 37°C, 25 nM prodigiosin): 0.33 | GORASP2 dose response, fit ([1]; 37°C, 25 nM prodigiosin): 0.33 | GORASP2 dose response, average ([1]; 37°C, 100 nM prodigiosin): 0.64 | GORASP2 dose response, fit ([1]; 37°C, 100 nM prodigiosin): 0.44 | GORASP2 dose response, average ([1]; 37°C, 400 nM prodigiosin): 0.47 | GORASP2 dose response, fit ([1]; 37°C, 400 nM prodigiosin): 0.56 | GORASP2 dose response, average ([1]; 37°C, 1600 nM prodigiosin): 0.85 | GORASP2 dose response, fit ([1]; 37°C, 1600 nM prodigiosin): 0.68 | GORASP2 dose response, average ([1]; 37°C, 6400 nM prodigiosin): 0.55 | GORASP2 dose response, fit ([1]; 37°C, 6400 nM prodigiosin): 0.77 | GORASP2 dose response, average ([1]; 50°C, 0.0976562 nM prodigiosin): 0.0745 | GORASP2 dose response, fit ([1]; 50°C, 0.0976562 nM prodigiosin): 0.06 | GORASP2 dose response, average ([1]; 50°C, 0.390625 nM prodigiosin): 0.13 | GORASP2 dose response, fit ([1]; 50°C, 0.390625 nM prodigiosin): 0.17 | GORASP2 dose response, average ([1]; 50°C, 1.5625 nM prodigiosin): 0.40 | GORASP2 dose response, fit ([1]; 50°C, 1.5625 nM prodigiosin): 0.39 | GORASP2 dose response, average ([1]; 50°C, 6.25 nM prodigiosin): 0.72 | GORASP2 dose response, fit ([1]; 50°C, 6.25 nM prodigiosin): 0.68 | GORASP2 dose response, average ([1]; 50°C, 25 nM prodigiosin): 0.81 | GORASP2 dose response, fit ([1]; 50°C, 25 nM prodigiosin): 0.87 | GORASP2 dose response, average ([1]; 50°C, 100 nM prodigiosin): 0.97 | GORASP2 dose response, fit ([1]; 50°C, 100 nM prodigiosin): 0.96 | GORASP2 dose response, average ([1]; 50°C, 400 nM prodigiosin): 0.97 | GORASP2 dose response, fit ([1]; 50°C, 400 nM prodigiosin): 0.99 | GORASP2 dose response, average ([1]; 50°C, 1600 nM prodigiosin): 1.04 | GORASP2 dose response, fit ([1]; 50°C, 1600 nM prodigiosin): 1.00 | GORASP2 dose response, average ([1]; 50°C, 6400 nM prodigiosin): 0.85 | GORASP2 dose response, fit ([1]; 50°C, 6400 nM prodigiosin): 1.00 | pEC50 ([1]; EC50 of GRASP55 stabilization, HeLa wt, 6 h): 8.59 | diff pseudoR2(50-37°C) ([1]; GRASP55/GORASP2): 0.81 | pseudoR2 (dose response curve fit, 37°C) ([1]; GRASP55/GORASP2, 37°C): 0.16 | normalized.Reporter.intensity ([1]; GRASP55/GORASP2, 37°C, 0.0976562 nM prodigiosin): 0.13 and -0.19 and -1.19 | normalized.Reporter.intensity ([1]; GRASP55/GORASP2, 37°C, 0.390625 nM prodigiosin): 0.0349 and 0.46 and 1.11 | normalized.Reporter.intensity ([1]; GRASP55/GORASP2, 37°C, 1.5625 nM prodigiosin): 0.45 and -0.0156 and -0.12 | normalized.Reporter.intensity ([1]; GRASP55/GORASP2, 37°C, 6.25 nM prodigiosin): 0.55 and 0.11 and -0.42 | normalized.Reporter.intensity ([1]; GRASP55/GORASP2, 37°C, 25 nM prodigiosin): 0.93 and 0.24 and -0.19 | normalized.Reporter.intensity ([1]; GRASP55/GORASP2, 37°C, 100 nM prodigiosin): 1.03 and 0.10 and 0.80 | normalized.Reporter.intensity ([1]; GRASP55/GORASP2, 37°C, 400 nM prodigiosin): 0.81 and 0.51 and 0.08 | normalized.Reporter.intensity ([1]; GRASP55/GORASP2, 37°C, 1600 nM prodigiosin): 1.12 and 0.54 and 0.88 | normalized.Reporter.intensity ([1]; GRASP55/GORASP2, 37°C, 6400 nM prodigiosin): -0.23 and 0.82 and 1.06 | H (dose response curve fit parameters, 37°C) ([1]; GRASP55/GORASP2, 37°C, Hill slope of fit): 0.35 and 0.3479 | pseudoR2 (dose response curve fit, 50°C) ([1]; GRASP55/GORASP2, 50°C): 0.97 | normalized.Reporter.intensity ([1]; GRASP55/GORASP2, 50°C, 0.0976562 nM prodigiosin): 0.0172 and 0.11 and 0.10 | normalized.Reporter.intensity ([1]; GRASP55/GORASP2, 50°C, 0.390625 nM prodigiosin): 0.12 and 0.19 and 0.10 | normalized.Reporter.intensity ([1]; GRASP55/GORASP2, 50°C, 1.5625 nM prodigiosin): 0.43 and 0.35 and 0.41 | normalized.Reporter.intensity ([1]; GRASP55/GORASP2, 50°C, 6.25 nM prodigiosin): 0.85 and 0.64 and 0.65 | normalized.Reporter.intensity ([1]; GRASP55/GORASP2, 50°C, 25 nM prodigiosin): 0.87 and 0.76 and 0.81 | normalized.Reporter.intensity ([1]; GRASP55/GORASP2, 50°C, 100 nM prodigiosin): 0.94 and 0.97 and 0.99 | normalized.Reporter.intensity ([1]; GRASP55/GORASP2, 50°C, 400 nM prodigiosin): 0.91 and 0.97 and 1.04 | normalized.Reporter.intensity ([1]; GRASP55/GORASP2, 50°C, 1600 nM prodigiosin): 1.02 and 1.10 and 1.01 | normalized.Reporter.intensity ([1]; GRASP55/GORASP2, 50°C, 6400 nM prodigiosin): 0.82 and 0.89 and 0.84 | H (dose response curve fit parameters, 50°C) ([1]; GRASP55/GORASP2, 50°C, Hill slope of fit): 0.84 and 0.8417 | dose response of GRASP55 at 37 °C (abundance control) ([1]; HeLa wt, 6 h, 37 °C): no dose response effects | pEC50 ([1]; pEC50 of GRASP55 stabilization, HeLa wt, 6 h): 8.58 | Mean_dTm [2]: -0.6723
